“And” between values parts separate entries of the source, which are not always exact repeats. Equal entries are not always repeated. Where two headings read alike, the source gives them in different places.
Legend:
[1] = test system: Beagle dogs; set-up: method as in PMID 34082759; settings: cited from earlier work
[2] = set-up: method as in PMID 34160092; settings: cited from earlier work
[3] = Plasma levels of enflicoxib and pyrazol metabolite in the 6-month field clinical study (HPLC-MS/MS); format: in vivo, client-owned dogs with OA; settings: for Mean plasma level: oral 8 mg/kg then 4 mg/kg weekly
Experimental: A prospective, multisite, blinded, randomized, placebo-controlled, parallel-group field study was performed in accordance with Good Clinical Practice standards ([16]). The study aimed to confirm the safety and efficacy of enflicoxib treatment of pain and inflammation associated with naturally occurring canine OA in dogs of any breed and sex treated for 6 months. The protocol was approved by the regulatory authorities of both Portugal and Hungary. Written informed consent was obtained from all dog owners prior to enrolment of their dogs. Dogs remained under the care of their owners at home throughout the study.
Before enrolment, all dogs underwent a physical examination, and blood and urine samples were taken. After enrollment, dogs were randomized in a predefined enflicoxib:placebo ratio of 3:1. Enflicoxib was dosed orally at weekly intervals, with an initial dose of 8 mg/kg, followed by once-a-week maintenance doses of 4 mg/kg for a total of 26 weeks. Dogs in the enflicoxib group received Daxocox® tablets (Ecuphar/Animalcare group), while dogs in the placebo group received the same formulation without the active ingredient under the same posology (number of tablets and dosing interval). […] No positive control was included due to difficulties in maintaining blinding with products under different posology during the entire follow-up period.
Two blood samples for popPK analysis were collected from all animals enrolled in the study one on day 44(±2 days)/1.5 months, (similar to the last sample taken in the previous clinical studies), after clinical assessment of pain and lameness and prior to treatment administration and another one at the end of the study on day 189/6 months (±2 days), or individual premature study termination day. Day 189 corresponds to the trough concentration after the 27th weekly administration (PK sample taken at the end of the weekly dosing interval). Meanwhile, day 44 corresponds to a PK sample obtained 2 days after the 7th weekly administration. The veterinary practices had the necessary resources and adequate freezing equipment for the long-term storage of plasma samples. Blood samples were collected into potassium-3-ethylenediaminetetraacetic acid (K3EDTA) labeled tubes, which were immediately centrifuged at ~2,500g for 10 min (at +4 °C whenever possible) to obtain plasma. Once received, plasma was transferred into two labeled propylene tubes (aliquots 1 and 2). Each plasma aliquot was stored frozen at a nominal temperature of −20 (±2) °C until shipment to the Laboratory of analysis Welab Barcelona (Parc Científic de Barcelona, C/Baldiri Reixac 4-12, 08028, Barcelona). The maximum storage time for the samples was 376 days at nominally −20 °C/−80 °C. Considering the long-term stability of enflicoxib and its metabolite in dog plasma samples stored at −20 °C, which spans a minimum of 402 days, the stability of the study samples was guaranteed for the entire duration of the study. Samples were analyzed without information on the treatment allocation (laboratory-blinded study).
Enflicoxib and pyrazol metabolite plasma levels were measured by a previously fully validated high-performance liquid chromatography (HPLC)-method coupled with tandem mass spectrometry (MS/MS) detection as described in Homedes et al. ([4]).

[4] = set-up: method as in PMID 34160092; settings: previously validated method, cited from earlier work

NS(=O)(=O)c1ccc(N2N=C(C(F)(F)F)CC2c2ccc(F)cc2F)cc1 (centres unmarked) [Enflicoxib]
Tolerability in overdose study ([1]; 3 times the recommended dose (12 mg/kg) for 7 months): well-tolerated
Tolerability in overdose study ([1]; 5 times the recommended dose (20 mg/kg) for 3 months): well-tolerated
mean terminal elimination half-life (t 1/2) ([2]; Beagle dogs, oral): 20 h
Effect of food on absorption [2]: food increases absorption
Mean plasma level ([3]; day 44 (2 days after 7th weekly administration), N=75): 491.7 ng/mL and 492 ng/mL
Max plasma level ([3]; day 44, N=75): 1,846.5 ng/mL
Min plasma level ([3]; day 44, N=75): 5.0 ng/mL
Probability (%) concentration < 10 ng/mL ([3]; day 44, N=75): 13.3%
Probability (%) concentration < LOQ ([3]; day 44, N=75): 9.3%
Probability (%) concentration < 10 ng/mL ([3]; day 44, N=75, listed as enflicoxib): 13%
Mean plasma level ([3]; day 93 (premature study termination), N=2): 296.8 ng/mL
Max plasma level ([3]; day 93, N=2): 356.0 ng/mL
Min plasma level ([3]; day 93, N=2): 237.7 ng/mL
Probability (%) concentration < 10 ng/mL ([3]; day 93, N=2): 0.0%
Probability (%) concentration < LOQ ([3]; day 93, N=2): 0.0%
Mean plasma level ([3]; day 189 (trough after 27th weekly administration), N=65): 262.5 ng/mL
Mean plasma level ([3]; day 189 (trough after 27th weekly administration), N=65, listed as enflicoxib): 263 ng/mL
Max plasma level ([3]; day 189, N=65): 1,846.3 ng/mL
Min plasma level ([3]; day 189, N=65): 5.0 ng/mL
Probability (%) concentration < 10 ng/mL ([3]; day 189, N=65): 27.7%
Probability (%) concentration < LOQ ([3]; day 189, N=65): 27.7%
Probability (%) concentration < 10 ng/mL ([3]; day 189, N=65, listed as enflicoxib): 28%
Stability in dog plasma ([4]; following 4 freeze–thaw cycles): stable
Stability in dog plasma ([4]; nominally −20 °C for 402 days): stable
Stability in dog plasma ([4]; room temperature for 4 h): stable
Long-term stability in dog plasma samples ([4]; stored at −20 °C): ≥ 402 days

From article PMC12505664, “Enflicoxib for the long-term management of canine osteoarthritis—External validation of a population pharmacokinetic model in dogs with osteoarthritis” (Frontiers in Veterinary Science, 2025)
